From US4659734A, “Olinecarboxylic acid derivatives” (Nippon Shinyaku Co., Ltd., priority 1983, dated 1987)
Converted amounts (≈) assume the structure as drawn. “Also recorded” adds a separate entry of the source.

Assays:
Acute toxicity = conditions: mouse, in vivo; oral, groups of ten ddY male mice; read-out: 50% Lethal Doses (LD50)
Experimental: Groups of ten ddY strain male mice (body weights: 20±1 grams) of the test compound were orally administered to determine the LD50. There was […] in which many mice died when the dose was 2000 mg/kg or less.

[1] = Excretion into urine and recovery, disc method; assay type: in vivo, ddY strain mice; conditions: 60 mg/kg per os; for Amount excreted into Urine: average ± standard error
Experimental: In the measurement of excretion into urine, ddY strain mice (male; body weights 30±2 grams) were used. Sixty mg/kg of the compound of Example 22b was administered per os and the mice were fed in metabolic cages and their urine was collected.
Therefore, in the quantitative determination, the calibration curve of the compound of Example 21, calculated by the disc method using Escherichia coli NIHJ strain and using the compound dissolved in phosphoric acid buffer (pH 8.0; 1/15M) was used. Table 5 reports the excretion into urine with respect to time, total recovery amount and recovery rate of the compound of Example 22b.

Escherichia coli KC-14 [2] = assay: Mouse intraperitoneal infection, survival after one week; assay type: in vivo, ddY strain mice; conditions: KC14, po; Escherichia coli KC-14, 5 × 10^4 per mouse; one dose per os 2 h after infection
Experimental: (§1) ddY--Strain mice (male; body weight 20±1 grams) of SPF were innoculated with the bacteria set forth in Table 2 by administration of a supension of the bacterial in 4% mucin solution into the abdominal cavity. A compound of the invention was given one time per os two hours after the infection, and, from the survival rate after one week. 50% effective doses (ED50) were calculated by the Behrens-Karber method.

Proteus mirabilis 181 [3] = assay: as above; assay type: in vivo, ddY strain mice; conditions: po; Proteus mirabilis 181, 2 × 10^7 per mouse; one dose per os 2 h after infection
Experimental: as §1

[4] = system: Staphylococcus aureus Smith; assay: as above; assay type: in vivo, ddY strain mice; conditions: po, 3 × 10^6 per mouse, one dose per os 2 h after infection
Experimental: as §1

[5] = system: Pseudomonas aeruginosa E-2; assay: as above; assay type: in vivo, ddY strain mice; conditions: E2, po; Pseudomonas aeruginosa E-2, 2 × 10^5 per mouse; one dose per os 2 h after infection; Behrens-Karber
Experimental: as §1

Serracia marcescens T-55 = assay: as above; assay type: in vivo, ddY strain mice; conditions: po; Serracia marcescens T-55, 5 × 10^6 per mouse; one dose per os 2 h after infection
Experimental: as §1

[6] = system: Acimetobacter calcoaceticus; assay: as above; assay type: in vivo, ddY strain mice; conditions: po, 1 × 10^7 per mouse, one dose per os 2 h after infection
Experimental: as §1

[7] = system: Klebsiella pneumoniae K-1966; assay: as above; assay type: in vivo, ddY strain mice; conditions: K1966, po; Klebsiella pneumoniae K-1966, 3 × 10^3 per mouse; one dose per os 2 h after infection
Experimental: as §1

Escherichia coli KC-14 [8] = assay: Minimum growth inhibiting concentration, Japan Chemotherapeutic Society method; assay type: cell-based; conditions: KC14; Escherichia coli KC-14, Gram -; read-out: Minimum Growth Inhibiting Concn
Experimental: (§2) The Antibacterial activity of the compounds of Examples 14, 13, 22b, 21 and 15 was determined in accordance with the method of Japan Chemotherapeutic Society (cf. Nippon Kagaku Ryoho Gakkai Shi, volume 29, number 1, pages 76 to 79, 1981) and the results are reported in Table 1, which follows.

[9] = system: Escherichia coli NIHJ JC-2; assay: as above; assay type: cell-based; conditions: NIHJJC2; Escherichia coli NIHJ JC-2, Gram -; read-out: Minimum Growth Inhibiting Concn
Experimental: as §2

Proteus mirabilis 181 [10] = assay: as above; assay type: cell-based; conditions: Proteus mirabilis 181, Gram -; read-out: Minimum Growth Inhibiting Concn
Experimental: as §2

[11] = system: Staphylococcus aureus 209-PJC; assay: as above; assay type: cell-based; conditions: Gram +, read-out: Minimum Growth Inhibiting Concn
Experimental: as §2

[12] = system: Staphylococcus aureus Smith; assay: as above; assay type: cell-based; conditions: Gram +, read-out: Minimum Growth Inhibiting Concn
Experimental: as §2

[13] = system: Pseudomonas aeruginosa E-2; assay: as above; assay type: cell-based; conditions: E2; Pseudomonas aeruginosa E-2, Gram -; read-out: Minimum Growth Inhibiting Concn
Experimental: as §2

[14] = system: Pseudomonas aeruginosa No. 12; assay: as above; assay type: cell-based; conditions: Pseudomonas aeruginosa No. 12, Gram -; read-out: Minimum Growth Inhibiting Concn
Experimental: as §2

Proteus vulgaris DX-19 = assay: as above; assay type: cell-based; conditions: DX19; Proteus vulgaris DX-19, Gram -; read-out: Minimum Growth Inhibiting Concn
Experimental: as §2

[15] = system: Pseudomonas maltophilia ATCC 13637; assay: as above; assay type: cell-based; conditions: Stenotrophomonas maltophilia, ATCC13637; Pseudomonas maltophilia ATCC 13637, Gram -; read-out: Minimum Growth Inhibiting Concn
Experimental: as §2

[16] = system: Acinetobacter calcoacelicus 54; assay: as above; assay type: cell-based; conditions: Acinetobacter calcoacelicus 54, Gram -; read-out: Minimum Growth Inhibiting Concn
Experimental: as §2

[17] = system: Listeria monocytogenes RIMD 1205020; assay: as above; assay type: cell-based; conditions: RIMD1205020; Listeria monocytogenes RIMD 1205020, Gram +; read-out: Minimum Growth Inhibiting Concn
Experimental: as §2

[18] = system: Klebsiella pneumoniae K-1966; assay: as above; assay type: cell-based; conditions: K1966; Klebsiella pneumoniae K-1966, Gram -; read-out: Minimum Growth Inhibiting Concn
Experimental: as §2

[19] = system: Micrococcus luteus ATCC 9341; assay: as above; assay type: cell-based; conditions: ATCC9341; Micrococcus luteus ATCC 9341, Gram +; read-out: Minimum Growth Inhibiting Concn
Experimental: as §2

[20] = system: Pseudomonas cepacia ATCC 25416; assay: as above; assay type: cell-based; conditions: Burkholderia cepacia, ATCC25416; Pseudomonas cepacia ATCC 25416, Gram -; read-out: Minimum Growth Inhibiting Concn
Experimental: as §2

[21] = system: Serracia marcescens IFO 3736; assay: as above; assay type: cell-based; conditions: Serracia marcescens IFO 3736, Gram -; read-out: Minimum Growth Inhibiting Concn
Experimental: as §2

[22] = system: Alcaligenes faecalis ATCC 8750; assay: as above; assay type: cell-based; conditions: ATCC8750; Alcaligenes faecalis ATCC 8750, Gram -; read-out: Minimum Growth Inhibiting Concn
Experimental: as §2

Cc1csc2c(C(=O)O)c(=O)c3cc(F)c(N4CCN(C)CC4)cc3n12 [Example 22b, 7-fluoro-1-methyl-8-(4-methyl-1-piperazinyl)-5-oxo-5H-thiazolo(3,2-a)-quinoline-4-carboxylic acid]
LD50 (Acute toxicity): > 2000 mg/kg
Amount excreted into Urine ([1]; 0-3 hrs): 268.1 ± 84.4 µg
Total Recovery in urine ([1]; 0-24 hrs): 813.9 µg
excretion into urine (in words) ([1]; mice): excreted into urine almost completely; also recorded: excreted into urine promptly and in high concentration which is continued and exhibits high recovery rate
metabolism (in words) ([1]; mice): metabolized to the compound of Example 21
Amount excreted into Urine ([1]; 3-6 hrs): 108.3 ± 33.1 µg
Amount excreted into Urine ([1]; 6-24 hrs): 437.5 ± 21.8 µg
ED50 (Escherichia coli KC-14 [2]): 1.1 mg/kg
ED50 (Proteus mirabilis 181 [3]): 13 mg/kg
ED50 [4]: 2.4 mg/kg
ED50 [5]: 13.1 mg/kg
ED50 (Serracia marcescens T-55): 5.4 mg/kg
ED50 [6]: 17.5 mg/kg
ED50 [7]: 2.7 mg/kg
MIC (Escherichia coli KC-14 [8]): 0.013 µg/mL (≈ 0.0346 µM)
MIC [9]: 0.025 µg/mL (≈ 0.0666 µM)
MIC (Proteus mirabilis 181 [10]): 0.2 µg/mL (≈ 0.533 µM)
MIC [11]: 0.013 µg/mL (≈ 0.0346 µM)
MIC [12]: 0.053 µg/mL (≈ 0.141 µM)
MIC [13]: 0.39 µg/mL (≈ 1.04 µM)
MIC [14]: 0.78 µg/mL (≈ 2.08 µM)
MIC (Proteus vulgaris DX-19): 0.1 µg/mL (≈ 0.266 µM)
MIC [15]: 0.025 µg/mL (≈ 0.0666 µM)
MIC [16]: 0.2 µg/mL (≈ 0.533 µM)
MIC [17]: 0.2 µg/mL (≈ 0.533 µM)
MIC [18]: 0.05 µg/mL (≈ 0.133 µM)
MIC [19]: 0.78 µg/mL (≈ 2.08 µM)
MIC [20]: 0.2 µg/mL (≈ 0.533 µM)
MIC [21]: 0.39 µg/mL (≈ 1.04 µM)
MIC [22]: 0.78 µg/mL (≈ 2.08 µM)
